# Experimental data reported in PMC8703873, “Structure and Activity of a Selective Antibiofilm Peptide SK-24 Derived from the NMR Structure of Human Cathelicidin LL-37” (Pharmaceuticals, 2021).
# Key:
# [1] = system: S. aureus USA300 LAC preformed biofilms; conditions: S. aureus USA300 LAC and other clinical strains (USA200, USA400, Mu50); cited from earlier work
# Experimental: Here, we compared the antibiofilm activity of SK-24 with that of GF-17, GI-20, and 17BIPHE2 against the 24 h preformed biofilms of S. aureus USA300. […] Only SK-24 a ...
# [2] = system: A. baumannii B28-16 preformed biofilms; test: Disruption of preformed biofilms (XTT); type: cell-based, Acinetobacter baumannii; conditions: biofilms formed for 24, 48 and 72 h, peptide at 8, 16, 32 or 64 μM for 24 h
# Experimental: The antibiofilm activities of peptides against the preformed biofilms of A. baumannii B28-16 and S. aureus USA300 LAC were evaluated as follows. Bacteria in the logarithmic growth phase were adjusted to a cell density of 10^5 colony forming unit (CFU)/mL. Two hundred microliter cells were seeded into each well of the 96-well plates. The plates were incubated at 37 °C to allow for the formation of biofilm for 24, 48, and 72 h, respectively. The planktonic cells were then removed, followed by a wash. The biofilms were then treated with 20 µL of 10× two-fold diluted peptides and 180 µL of fresh TSB media for 24 h at 37 °C. Cultures treated with water without peptide served as the positive control, and media treated with water was used as the negative control. To quantify the antibiofilm activity of the peptides, the XTT [2, 3-bis (2-methyloxy-4-nitro-5-sulfophenyl)-2H-tertazolium-5-carboxanilide] assay staining method was used to quantitate the live cells. Absorbance was read at 450 nm using a ChroMate microliter plate reader. The percentage biofilm growth for the peptide was plotted by assuming 100% biofilm growth in untreated bacterial control wells. Data were represented as mean ± standard deviation (SD). The data are statistically significant at p < 0.05. Plots were generated using GraphPad Prism v7 (GraphPad Software, San Diego, CA, USA).
# S. aureus USA300 LAC = test: Membrane depolarization (DiBAC4(3)); type: cell-based, Staphylococcus aureus; conditions: peptide 8 µM; similar trends at 16 and 32 µM; DiBAC4(3) fluorescence
# Experimental: The experiment was conducted as described. In brief, an overnight culture of S. aureus USA300 LAC was subcultured in a fresh TSB medium and grown to the exponential phase. Cells were spun using centrifugation and washed twice with PBS, and resuspended in twice the volume of PBS containing 25 mM glucose and incubated at 37 °C for 15 min. For membrane depolarization measurements, 500 nM (final concentration) of the dye DiBAC4 (3) (bis-(1,3- dibutylbarbituric acid) trimethine oxonol) (AnaSpec, San Jose, CA, USA) was added and vortexed gently. Aliquots of 90 μL of the energized bacteria solution were loaded to the wells, and the plate was fed into a FLUOstar Omega microplate reader. Fluorescence was read for 20 min at excitation and emission wavelengths of 485 and 520 nm, respectively, to get dye normalization. Then 10 μL of diluted peptide solutions were added and gently mixed. Fluorescence readings were recorded for 40 min, where Triton X-100 (0.1%) was used as a positive control.
# [3] = HPLC retention time (measure of peptide hydrophobicity); type: physicochemical; conditions: chromatographic, Waters C8 symmetry hydrophobic column, as described in ref 34; used as indicator of peptide hydrophobicity
# From the text: In the membrane-bound LL-37 structure determined by 3D NMR spectroscopy, a hydrophobic gap exists (Figure 1A). The location of a hydrophilic S9 on the hydrophobic surface of LL-37 splits the long helix into two hydrophobic domains (gold sticks). The SK-24 peptide we identified here corresponds to the long hydrophobic domain [26]. The amino acid sequence of SK-24, along with LL-37 and its derived antimicrobial peptides, is depicted in Figure 1B. Peptide parameters, including net charge, hydrophobic content, Boman index, GRAVY, hydrophobicity, and hydrophobic moment of each peptide, were calculated using online tools, such as the APD [8] and HeliQuest (Table 1). Except for the shortest RI-10 (net charge +3), LL-37 and its other derived peptides have net charges +5 or +6, above the average net charge (+3.3) of natural antimicrobial peptides registered in the APD [8, 35, 36]. Overall, the hydrophobic percentages (Pho) of these peptides calculated in the APD are proportional to the hydrophobicity and hydrophobic moment calculated by HeliQuest in Table 1. Of note, LL-37 has the highest net charge (+6) and Boman index but the lowest Pho%, GRAVY, and hydrophobic moment.
# All peptides were chemically synthesized and purified to >95% (Genemed Synthesis, San Antonio, TX, USA). The quality of each peptide was determined based on mass spectrometry (MS) and high-performance liquid chromatography (HPLC). Peptide stock solutions were freshly made by solubilizing in autoclaved distilled water, and their concentrations were quantitated using UV spectroscopy based on the absorbance difference at 215 and 225 nm as described. Peptide retention time was measured on a Waters C8 symmetry hydrophobic column as described. Other chemicals were purchased from Sigma (St. Louis, MO, USA) unless specified.
# Human red blood cells = test: Hemolytic assay; type: cell-based; conditions: 2% hRBCs in saline, 37 °C, 1 h
# Experimental: Human red blood cells (hRBCs, the UNMC Blood Bank) were washed three to five times with saline (Fisher Scientific, Waltham, MA, USA) at 800 g for 10 min each time, until the supernatant was clear. The supernatant was discarded, and hRBCs were suspended in saline at a final density of 2%. Ninety microliters of hRBC suspensions were added to each well of 96-well plates containing 10 µL of 10× serially diluted peptides. After incubation at 37 °C for 1 h, the plates were centrifuged at 1500 rpm for 5 min. About 80 µL of the supernatant was carefully pipetted to a new 96-well microplate and read at 545 nm to measure the amount of hemoglobin released. The positive control was 1% Triton X-100, and the negative control was saline. The percentage of hRBC lysis was calculated based on the hemoglobin released.
# E. faecium V284-17 = type: cell-based, Enterococcus faecium; conditions: E. faecium V284-17; 100% TSB, 37 °C overnight, read at 630 nm
structure (smiles),measurement,setting,value
CC[C@H](C)[C@H](NC(=O)[C@H](CCCCN)NC(=O)[C@H](CCC(=O)O)NC(=O)[C@H](CCCCN)NC(=O)[C@H](CO)NC(=O)[C@H](CCCCN)NC(=O)[C@H](CCCNC(=N)N)NC(=O)[C@H](Cc1ccccc1)NC(=O)[C@H](Cc1ccccc1)NC(=O)[C@H](CC(=O)O)NC(=O)CNC(=O)[C@H](CC(C)C)NC(=O)[C@@H](N)CC(C)C)C(=O)NCC(=O)N[C@@H](CCCCN)C(=O)N[C@@H](CCC(=O)O)C(=O)N[C@@H](Cc1ccccc1)C(=O)N[C@@H](CCCCN)C(=O)N[C@@H](CCCNC(=N)N)C(=O)N[C@H](C(=O)N[C@H](C(=O)N[C@@H](CCC(N)=O)C(=O)N[C@@H](CCCNC(=N)N)C(=O)N[C@H](C(=O)N[C@@H](CCCCN)C(=O)N[C@@H](CC(=O)O)C(=O)N[C@@H](Cc1ccccc1)C(=O)N[C@@H](CC(C)C)C(=O)N[C@@H](CCCNC(=N)N)C(=O)N[C@@H](CC(N)=O)C(=O)N[C@@H](CC(C)C)C(=O)N[C@H](C(=O)N1CCC[C@H]1C(=O)N[C@@H](CCCNC(=N)N)C(=O)N[C@H](C(=O)N[C@@H](CCC(=O)O)C(=O)N[C@@H](CO)C(=O)O)[C@@H](C)O)C(C)C)[C@@H](C)CC)C(C)C)[C@@H](C)CC [LL-37],"Disruption of 24 h preformed biofilms (words, found previously)",[1],neither LL-37 nor RI-10 was able to disrupt
same,Disruption of preformed biofilms,[2],unable to disrupt
same,"Membrane depolarization ability (order, words)",S. aureus USA300 LAC,GI-20 > 17BIPHE2 > GF-17~SK-24 > LL-37
same,tHPLC (HPLC retention time),[3],12.548 min
same,HC50 (50% hemolytic concentration),Human red blood cells; tested 12.5–200 µM,~ 175 µM
same,Hemolytic activity,Human red blood cells; tested 12.5–200 µM,no hemolysis below 100 µM
same,Hemolysis,"Human red blood cells; peptide 200 µM, read at 545 nm",70%
same,MIC,E. faecium V284-17,32 µM
